Reference: patent publication US7632933B2, “Corticotropin releasing factor 2 receptor agonists” (priority 2002, dated 2009)
Like-named read-outs stand apart in the source and are kept apart here. Ends that are not written are not given here. Peptide text beside a SMILES is read from it.

Key:
[1] = target: T1, CRF2R (Homo sapiens, UniProt Q13324); assay: CRF2R agonist activity (EC50 and Emax), called comparative CRF binding; assay type: cell-based
T1 sequence (Q13324 1-411): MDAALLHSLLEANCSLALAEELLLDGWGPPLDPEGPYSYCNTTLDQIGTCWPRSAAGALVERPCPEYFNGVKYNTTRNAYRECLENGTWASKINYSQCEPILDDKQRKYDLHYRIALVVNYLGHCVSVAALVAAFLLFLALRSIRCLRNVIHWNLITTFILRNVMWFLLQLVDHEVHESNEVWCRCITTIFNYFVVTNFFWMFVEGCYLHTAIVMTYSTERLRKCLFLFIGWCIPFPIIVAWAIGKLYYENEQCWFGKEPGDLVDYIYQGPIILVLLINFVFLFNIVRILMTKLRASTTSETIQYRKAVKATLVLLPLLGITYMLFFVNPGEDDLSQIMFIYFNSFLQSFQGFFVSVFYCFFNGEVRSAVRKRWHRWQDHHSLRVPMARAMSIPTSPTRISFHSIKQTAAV
Procedure, shortened: (§1)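 Agonism is scored by Gαs-driven cAMP rise in cells carrying CRF1R or CRF2R alone, with vehicle-treated cells as control.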

[2] = target: T2, CRF1R (Homo sapiens, UniProt P34998); assay: CRF1R agonist activity (EC50 and Emax), called comparative CRF binding; assay type: cell-based
T2 sequence (P34998 24-415): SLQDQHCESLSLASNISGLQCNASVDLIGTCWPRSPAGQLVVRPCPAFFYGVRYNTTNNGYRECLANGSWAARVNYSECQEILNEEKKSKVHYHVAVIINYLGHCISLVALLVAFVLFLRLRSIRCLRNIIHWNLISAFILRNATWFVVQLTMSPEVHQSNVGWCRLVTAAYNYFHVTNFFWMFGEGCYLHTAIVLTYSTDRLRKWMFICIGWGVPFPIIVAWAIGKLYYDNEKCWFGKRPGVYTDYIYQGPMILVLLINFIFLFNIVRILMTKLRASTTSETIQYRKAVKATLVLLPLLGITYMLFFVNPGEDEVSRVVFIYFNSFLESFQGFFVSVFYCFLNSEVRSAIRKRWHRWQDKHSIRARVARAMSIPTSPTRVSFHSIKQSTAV
Procedure, shortened: as §1

Row | Compound | EC50 ([1]; CRF2R EC50) [nM] | EC50 ([2]; CRF1R EC50) [nM] | EC50 ([1]; CRF2R, read-out: CRF2R EC50) [nM] | EC50 ([2]; CRF1R, read-out: CRF1R EC50) [nM] | CRF2R (Emax %) ([1]; CRF2R, Emax) | CRF1R (Emax %) ([2]; CRF1R, Emax)
1 | CC[C@H](C)[C@H](NC(=O)[C@H](CCC(N)=O)NC(=O)[C@H](C)NC(=O)[C@H](CCSC)NC(=O)[C@H](CC(C)C)NC(=O)[C@H](Cc1c[nH]cn1)NC(=O)[C@H](C)NC(=O)[C@H](CC(N)=O)NC(=O)[C@H](C)NC(=O)[C@H](C)NC(=O)[C@H](C)NC(=O)[C@H](CCC(N)=O)NC(=O)[C@H](C)NC(=O)[C@H](CCCNC(=N)N)NC(=O)[C@H](CC(C)C)NC(=O)[C@H](CC(N)=O)NC(=O)[C@H](CCCCN)NC(=O)[C@H](C)NC(=O)[C@H](CCCCN)NC(=O)[C@H](C)NC(=O)[C@@H](NC(=O)[C@H](CC(N)=O)NC(=O)[C@H](Cc1ccccc1)NC(=O)[C@H](CC(C)C)NC(=O)[C@H](CC(C)C)NC(=O)[C@H](CC(N)=O)NC(=O)[C@H](CCSC)NC(=O)[C@@H](NC(=O)[C@H](CC(N)=O)NC(=O)[C@@H](NC(=O)[C@@H]1CCCN1C(=O)[C@@H](NC(=O)[C@H](CC(=O)O)NC(=O)[C@H](CC(C)C)NC(=O)[C@H](CO)NC(=O)[C@H](CC(C)C)NC(=O)[C@@H](NC(=O)[C@H](Cc1ccccc1)NC(=O)[C@H](CCCCN)NC(=O)[C@@H](N)[C@@H](C)O)[C@@H](C)O)C(C)C)[C@@H](C)O)[C@@H](C)CC)[C@@H](C)CC)C(N)=O [hUroIII, reference compound] (H-TKFTLSLDVPTNIMNLLFNIAKAKNLRAQAAANAHLMAQI-NH2) | > 100 | > 1000 | – | – | – | –
2 | SQEPPISLDLTFGLLREVLEMTKADQLAQQAHSNRKLLDIA-NH2 [compound 88] | – | – | ≥ 100 | ≥ 100 | – | –
3 | SQEPPISLDLPTELLREVLEMTKADQLAQQAHSNRKIIDIA-NH2 [compound 92] | – | – | ≥ 100 | ≥ 100 | – | –
4 | CC[C@H](C)[C@H](N)C(=O)N[C@H](C(=O)N[C@@H](CC(C)C)C(=O)N[C@@H](CO)C(=O)N[C@@H](CC(C)C)C(=O)N[C@@H](CC(=O)O)C(=O)N[C@H](C(=O)N1CCC[C@H]1C(=O)N[C@H](C(=O)NCC(=O)N[C@@H](CC(C)C)C(=O)N[C@@H](CC(C)C)C(=O)N[C@@H](CCC(N)=O)C(=O)N[C@H](C(=O)N[C@@H](CC(C)C)C(=O)N[C@@H](CC(C)C)C(=O)N[C@@H](CCC(=O)O)C(=O)N[C@@H](CCC(N)=O)C(=O)N[C@H](C(=O)N[C@@H](CCCCN)C(=O)N[C@@H](C)C(=O)N[C@@H](CC(N)=O)C(=O)N[C@@H](C)C(=O)N[C@@H](C)C(=O)N[C@@H](CCCNC(=N)N)C(=O)N[C@@H](CCC(=O)O)C(=O)N[C@@H](CCC(N)=O)C(=O)N[C@@H](C)C(=O)N[C@H](C(=O)N[C@H](C(=O)N[C@H](C(=O)N[C@@H](C)C(=O)N[C@@H](CCCNC(=N)N)C(=O)N[C@H](C(=O)N[C@@H](CC(C)C)C(=O)N[C@@H](C)C(=O)N[C@@H](CCCNC(=N)N)C(=O)N[C@H](C(N)=O)C(C)C)[C@@H](C)CC)C(C)C)[C@@H](C)O)[C@@H](C)O)[C@@H](C)O)[C@@H](C)CC)[C@@H](C)CC)C(C)C)C(C)C [compound 116] (H-IVLSLDVPIGLLQILLEQTKANAAREQATTVARILARV-NH2) | – | – | ≥ 100 | ≥ 100 | – | –
5 | CC[C@H](C)[C@H](N)C(=O)N[C@H](C(=O)N[C@@H](CC(C)C)C(=O)N[C@@H](CO)C(=O)N[C@@H](CC(C)C)C(=O)N[C@@H](CC(=O)O)C(=O)N[C@H](C(=O)N1CCC[C@H]1C(=O)N[C@H](C(=O)NCC(=O)N[C@@H](CC(C)C)C(=O)N[C@@H](CC(C)C)C(=O)N[C@@H](CCC(N)=O)C(=O)N[C@H](C(=O)N[C@@H](CC(C)C)C(=O)N[C@@H](CC(C)C)C(=O)N[C@@H](CCC(=O)O)C(=O)N[C@@H](CCC(N)=O)C(=O)N[C@@H](C)C(=O)N[C@@H](CCCCN)C(=O)N[C@@H](C)C(=O)N[C@@H](CCCNC(=N)N)C(=O)N[C@@H](C)C(=O)N[C@@H](C)C(=O)N[C@@H](CCCNC(=N)N)C(=O)N[C@@H](CCC(=O)O)C(=O)N[C@@H](CCC(N)=O)C(=O)N[C@@H](C)C(=O)N[C@H](C(=O)N[C@H](C(=O)N[C@@H](CC(N)=O)C(=O)N[C@@H](C)C(=O)N[C@@H](CCCNC(=N)N)C(=O)N[C@H](C(=O)N[C@@H](CC(C)C)C(=O)N[C@@H](C)C(=O)N[C@@H](CCCNC(=N)N)C(=O)N[C@H](C(N)=O)C(C)C)[C@@H](C)CC)[C@@H](C)O)[C@@H](C)O)[C@@H](C)CC)[C@@H](C)CC)C(C)C)C(C)C [compound 127] (H-IVLSLDVPIGLLQILLEQAKARAAREQATTNARILARV-NH2; N-terminus assumed) | – | – | 7.79 | – | (94) % | (6) %
6 | CC[C@H](C)[C@H](NC(=O)[C@H](C)NC(=O)[C@H](CC(N)=O)NC(=O)[C@H](CCC(N)=O)NC(=O)[C@H](CCC(=O)O)NC(=O)[C@H](C)NC(=O)[C@H](CCCNC(=N)N)NC(=O)[C@H](CCC(=O)O)NC(=O)[C@H](CCCNC(=N)N)NC(=O)[C@H](CCC(N)=O)NC(=O)[C@H](CO)NC(=O)[C@H](CCC(N)=O)NC(=O)[C@@H](NC(=O)[C@H](CCCCN)NC(=O)[C@H](CCC(=O)O)NC(=O)[C@H](CC(C)C)NC(=O)[C@H](CCC(=O)O)NC(=O)[C@H](CC(C)C)NC(=O)[C@H](CC(C)C)NC(=O)[C@@H](NC(=O)[C@H](CCCNC(=N)N)NC(=O)[C@H](CC(C)C)NC(=O)[C@H](CC(C)C)NC(=O)[C@H](CCC(N)=O)NC(=O)[C@H](CC(C)C)NC(=O)[C@@H]1CCCN1C(=O)[C@H](CC(C)C)NC(=O)[C@H](CC(=O)O)NC(=O)[C@@H](NC(=O)[C@H](CO)NC(=O)[C@H](CC(C)C)NC(=O)[C@H](CO)NC(=O)[C@@H]1CCCN1C(=O)[C@H](CC(N)=O)NC(=O)[C@@H](N)CC(=O)O)[C@@H](C)CC)[C@@H](C)O)[C@@H](C)O)C(=O)N[C@H](C(=O)N[C@@H](Cc1ccccc1)C(=O)N[C@@H](C)C(=O)N[C@@H](CO)C(=O)N[C@H](C(N)=O)C(C)C)[C@@H](C)CC [compound 342] (H-DNPSLSIDLPLQLLRTLLELEKTQSQRERAEQNAIIFASV-NH2; N-terminus assumed) | – | – | 20.3 | ≥ 1000 | – | –
7 | SQEPPISLDLPLYLLREVLEMTKADQLAQQAHSNRKLLDIA-NH2 [compound 101] | – | – | ≥ 100 | ≥ 100 | – | –
8 | CC[C@H](C)[C@H](N)C(=O)N[C@H](C(=O)N[C@@H](CC(C)C)C(=O)N[C@@H](CO)C(=O)N[C@@H](CC(C)C)C(=O)N[C@@H](CC(=O)O)C(=O)N[C@H](C(=O)N1CCC[C@H]1C(=O)N[C@H](C(=O)NCC(=O)N[C@@H](CC(C)C)C(=O)N[C@@H](CC(C)C)C(=O)N[C@@H](CCC(N)=O)C(=O)N[C@H](C(=O)N[C@@H](CC(C)C)C(=O)N[C@@H](CC(C)C)C(=O)N[C@@H](CCC(=O)O)C(=O)N[C@@H](CCC(N)=O)C(=O)N[C@@H](C)C(=O)N[C@@H](CCCNC(=N)N)C(=O)N[C@@H](C)C(=O)N[C@@H](C)C(=O)N[C@@H](C)C(=O)N[C@@H](CCCNC(=N)N)C(=O)N[C@@H](CCC(=O)O)C(=O)N[C@@H](CCC(N)=O)C(=O)N[C@@H](C)C(=O)N[C@H](C(=O)N[C@H](C(=O)N[C@@H](CC(N)=O)C(=O)N[C@@H](C)C(=O)N[C@@H](CCCNC(=N)N)C(=O)N[C@H](C(=O)N[C@@H](CC(C)C)C(=O)N[C@@H](C)C(=O)N[C@@H](CCCNC(=N)N)C(=O)N[C@H](C(N)=O)C(C)C)[C@@H](C)CC)[C@@H](C)O)[C@@H](C)O)[C@@H](C)CC)[C@@H](C)CC)C(C)C)C(C)C [compound 141] (H-IVLSLDVPIGLLQILLEQARAAAREQATTNARILARV-NH2) | – | – | > 100 | > 100 | – | –
9 | CC[C@H](C)[C@H](N)C(=O)N[C@H](C(=O)N[C@@H](CC(C)C)C(=O)N[C@@H](CO)C(=O)N[C@@H](CC(C)C)C(=O)N[C@@H](CC(=O)O)C(=O)N[C@H](C(=O)N1CCC[C@H]1C(=O)N[C@H](C(=O)NCC(=O)N[C@@H](CC(C)C)C(=O)N[C@@H](CC(C)C)C(=O)N[C@@H](CCC(N)=O)C(=O)N[C@H](C(=O)N[C@@H](CC(C)C)C(=O)N[C@@H](CC(C)C)C(=O)N[C@@H](CCC(=O)O)C(=O)N[C@@H](CCCCN)C(=O)N[C@@H](C)C(=O)N[C@@H](C)C(=O)N[C@@H](C)C(=O)N[C@@H](CCC(=O)O)C(=O)N[C@@H](C)C(=O)N[C@@H](CCC(=O)O)C(=O)N[C@@H](C)C(=O)N[C@@H](C)C(=O)N[C@@H](C)C(=O)N[C@@H](CCCCN)C(=O)N[C@@H](C)C(=O)N[C@@H](C)C(=O)N[C@@H](CCC(N)=O)C(=O)N[C@@H](CCC(=O)O)C(=O)N[C@@H](CCC(N)=O)C(=O)N[C@H](C(=O)N[C@@H](CC(C)C)C(=O)N[C@@H](C)C(=O)N[C@@H](Cc1c[nH]cn1)C(=O)N[C@H](C(N)=O)C(C)C)[C@@H](C)CC)[C@@H](C)CC)[C@@H](C)CC)C(C)C)C(C)C [compound 366] (H-IVLSLDVPIGLLQILLEKAAAEAEAAAKAAQEQILAHV-NH2) | – | – | ≥ 100 | ≥ 1000 | – | –
